This is an account of results in patent publication US10328066B2, “Pharmaceutical combination comprising the PI3K inhibitor alpelisib and the CDK4/6 inhibitor ribociclib, and the use thereof in the treatment/prevention of cancer” (Novartis AG, priority 2015, dated 2019).

Common to all, as to format: cell-based
The subject of experiment [1] is 15 colorectal cancer cell lines. As to the kind of experiment: In vitro proliferation, summary over the cell line panel. Conditions: single agents. On the procedure:
(§1) COMPOUNDS A, B, and C were dissolved in 100% DMSO (Sigma, Catalog number D2650) at concentrations of 20 mM and stored at −20° C. until use. Compounds were arrayed in drug master plates (Greiner, Catalog number 788876) and serially diluted 3-fold (7 steps) at 2000× concentration.
(§2) Colorectal cancer cell lines used for this study were obtained, cultured and processed from commercial vendors ATCC, CellBank Australia, DMSZ, ECACC, and HSRRB (Table 1). All cell line media were supplemented with 10% FBS (HyClone, Catalog number SH30071.03). Media for LIM2551 was additionally supplemented with 0.6 μg/mL Insulin (SIGMA, Catalog number 19278), 1 μg/mL Hydrocortisone (SIGMA, Catalog number H0135), and 10 μM 1-Thioglycerol (SIGMA, Catalog number M6145).
(§3) Cell lines were cultured in 37° C. and 5% CO2 incubator and expanded in T-75 flasks. In all cases cells were thawed from frozen stocks, expanded through ≥1 passage using 1:3 dilutions, counted and assessed for viability using a ViCell counter (Beckman-Coulter) prior to plating. To split and expand cell lines, cells were dislodged from flasks using 0.25% Trypsin-EDTA (GIBCO, Catalog number 25200). All cell lines were determined to be free of mycoplasma contamination as determined by a PCR detection methodology performed at Idexx Radil (Columbia, Mo., USA) and correctly identified by detection of a panel of SNPs.
To test the effect of the combination of COMPOUND A, COMPOUND B, and COMPOUND C on cell proliferation cells were plated in black 384-well microplates with clear bottom (Matrix/Thermo Scientific, Catalog number 4332) in 50 μL media per well at cell densities between 500 and 1250 cells/well (Table 1) and allowed to incubate at 37 degrees, 5% CO2 for 24 h. […] Caspase 3/7 induction was measured as a proxy for apoptosis induced by the treatments. Cells were treated for 72 h to 96 h depending on their doubling time (Table 1), and Caspase 3/7 activation was measured every 24 h by microscopy using an InCell Analyzer 2000 (GE Healthcare) equipped with a 4× objective and FITC excitation/emission filters. […]

Another experiment has as its system LIM2551. As to the kind of experiment: In vitro proliferation (cell count by microscopy), single agents and combination. Conditions: LIM2551 (BRAF, PIK3CA), 72 h treatment; 50% of cell counts relative to DMSO. On the procedure: as §1, §2, §3
(§4) To test the effect of the combination of COMPOUND A, COMPOUND B, and COMPOUND C on cell proliferation cells were plated in black 384-well microplates with clear bottom (Matrix/Thermo Scientific, Catalog number 4332) in 50 μL media per well at cell densities between 500 and 1250 cells/well (Table 1) and allowed to incubate at 37 degrees, 5% CO2 for 24 h. After 24 h one 384-well plate per cell line was prepared for cell counting by microscopy (see below) without receiving treatment (=‘baseline’). The other cell plates were treated by transferring 25 nL of the 2000× compound from drug master plates using an ATS acoustic liquid dispenser (ECD Biosystems) and resulting in a final 1× concentration. COMPOUND A was used over a final concentration range of 13 nM-10 μM, COMPOUND B was used over a final concentration range of 13 nM-10 μM, and COMPOUND C was used over a final concentration range of 27 nM-20 μM (7 1:3 dilution steps). In order to assess the effect of the triple combination all individual COMPOUNDS (A, B, C), all three pair wise combinations (A+B, A+C, B+C), and the triple combination (A+B+C) were tested in the same experiment. Pair wise combinations and the triple combination were tested at a fixed ratio of 1:1 (for drug pairs) and 1:1:1 (for the drug triple) at each dilution resulting in 7 combination conditions per treatment. […] After compound addition 50 nL of 2 mM CellEvent Caspase-3/7 Green Detection Reagent (ThermoFisher, Catalog number C10423) were added to one of the three replicates using the HP D300 Digital Dispenser (Tecan). Caspase 3/7 induction was measured as a proxy for apoptosis induced by the treatments. Cells were treated for 72 h to 96 h depending on their doubling time (Table 1), and Caspase 3/7 activation was measured every 24 h by microscopy using an InCell Analyzer 2000 (GE Healthcare) equipped with a 4× objective and FITC excitation/emission filters. At the end of the treatment cells were prepared for cell counting by microscopy. Cells were fixed and permeabilised for 45 minutes in 4% PFA (Electron Microscopy Sciences, Catalog number 15714), 0.12% TX-100 (Electron Microscopy Sciences, Catalog number 22140) in PBS (Boston Bioproducts, Catalog number BM-220). After washing cells three times with PBS their DNA was stained for 30 minutes with Hoechst 33342 (ThermoFisher, Catalog number H3570) at a final concentration of 4 μg/mL. Cells were washed three times with PBS and then plates were heat-sealed using a PlateLoc (Agilent Technologies) with aluminum seals (Agilent Technologies, Catalog number 06644-001) and stored at 4° C. until imaging. […]

A further experiment concerns DLD-1. Described as above. Conditions: Homo sapiens; DLD-1 (KRAS, PIK3CA), 72 h treatment; 50% of cell counts relative to DMSO. On the procedure: as §1, §2, §3, §4
A further experiment deals with RKO. The experiment is described as above. The settings on record: Homo sapiens; RKO (BRAF, PIK3CA), 72 h treatment; 50% of cell counts relative to DMSO. The procedure: as §1, §2, §3, §4
In another experiment the test system is GP2d. The description is as above. The settings on record: GP2d (KRAS, PIK3CA), 72 h treatment; 50% of cell counts relative to DMSO. On the procedure: as §1, §2, §3, §4
A further experiment has as its system NCI-H508. The experiment is described as above. The settings on record: Homo sapiens; NCI-H508 (PIK3CA), 72 h treatment; 50% of cell counts relative to DMSO. The procedure: as §1, §2, §3, §4
The subject of another experiment is LS411N. The description is as above. Conditions: Homo sapiens, LS-411N; LS411N (BRAF), 72 h treatment; 50% of cell counts relative to DMSO. The procedure: as §1, §2, §3, §4
Another experiment has as its system COLO-205. The description is as above. Conditions: Homo sapiens; COLO-205 (BRAF), 72 h treatment; 50% of cell counts relative to DMSO. On the procedure: as §1, §2, §3, §4
A further experiment deals with LS-180. Described as above. Conditions: Homo sapiens, LS180; LS-180 (KRAS, PIK3CA), 72 h treatment; 50% of cell counts relative to DMSO. The procedure: as §1, §2, §3, §4
For the next experiment, the system named is COLO-320. The experiment is described as above. Conditions: Homo sapiens; COLO-320 (no driver mutation listed), 72 h treatment; 50% of cell counts relative to DMSO. The procedure:
as §1, §2, §3, §4

Another experiment concerns SW480. The description is as above. Conditions: Homo sapiens; SW480 (KRAS), 72 h treatment; 50% of cell counts relative to DMSO. On the procedure:
as §1, §2, §3, §4

The test system of another experiment is SW837. Described as above. The settings on record: Homo sapiens; SW837 (KRAS), 72 h treatment; 50% of cell counts relative to DMSO. The procedure: as §1, §2, §3, §4
The test system of a further experiment is HCT-116. The description is as above. The settings on record: Homo sapiens; HCT-116 (KRAS, PIK3CA), 72 h treatment; 50% of cell counts relative to DMSO. On the procedure:
as §1, §2, §3, §4

The test system of a further experiment is OUMS-23. Described as above. Conditions: OUMS-23 (BRAF), 72 h treatment; 50% of cell counts relative to DMSO. The procedure:
as §1, §2, §3, §4

The test system of another experiment is HT-29. The description is as above. Conditions: Homo sapiens; HT-29 (BRAF, PIK3CA), 72 h treatment; 50% of cell counts relative to DMSO. On the procedure:
as §1, §2, §3, §4

The subject of a further experiment is LoVo. The experiment is described as above. Conditions: Homo sapiens; LoVo (KRAS), 96 h treatment; 50% of cell counts relative to DMSO. The procedure: as §1, §2, §3, §4

Structures are written as SMILES. A value given as a limit tells only on which side of the number the result lay.

As to `Cc1nc(NC(=O)N2CCC[C@H]2C(N)=O)sc1-c1ccnc(C(C)(C)C(F)(F)F)c1` [COMPOUND A, (S)-Pyrrolidine-1,2-dicarboxylic acid 2-amide 1-({4-methyl-5-[2-(2,2,2-trifluoro-1,1-dimethyl-ethyl)-pyridin-4-yl]-thiazol-2-yl}-amide)], the “IC50 values across the cell lines (summary in words)” value (“IC50 values across the cell lines” for short) in [1] is recorded as “mostly micromolar IC50 values”.
On to `O=c1[nH]cc(F)c(=O)[nH]1` [COMPOUND C, 5-fluoro-2,4-(1H,3H) pyrimidinedione], for which the “IC50 values across the cell lines” value in experiment [1] is given as “micromolar IC50s in all but one cell line (SW480)”. Further, the IC50 in the experiment on LIM2551 was determined as 4.2 µM; in the experiment on DLD-1, 6.6 µM; in the experiment with RKO, 2.1 µM; in the experiment on GP2d, 3.2 µM; in the experiment on NCI-H508 it was 3.3 µM; in the experiment with LS411N, 4.1 µM. For the same molecule, the IC50 in the experiment on COLO-205 is 0.6 µM; in the experiment with LS-180, 14 µM; with COLO-320, 2.4 µM; with SW480, > 20 µM; in the experiment on SW837, 7.7 µM; with HCT-116, 5.6 µM. Also, the IC50 was determined as 10.4 µM in the experiment on OUMS-23, 7.4 µM with HT-29 and 5.6 µM in the experiment with LoVo.
In the case of `CN(C)C(=O)c1cc2cnc(Nc3ccc(N4CCNCC4)cn3)nc2n1C1CCCC1` [COMPOUND B, 7-Cyclopentyl-2-(5-piperazin-1-yl-pyridin-2-ylamino)-7H-pyrrolo[2,3-d]pyrimidine-6-carboxylic acid dimethylamide], in experiment [1], the “IC50 values across the cell lines” value is recorded as “mostly micromolar IC50 values”.

One may read the IC50 as the concentration at which inhibition is half-maximal.
